# From US20080221095A1, “Metalloprotease inhibitors containing a heterocyclic moiety” (priority 2007, published 2008)
# Legend:
# Type in all cases: biochemical
# [1] = target: T1, catalytic domain of MMP-13 enzyme (Homo sapiens, UniProt P45452); assay: Assay for determining MMP-13 inhibition (fluorescent substrate); settings: read-out: MMP-13 Activity (IC50 MMP-13), Group
# T1 construct: 50 nM stock solution of catalytic domain of MMP-13 enzyme; purchased Invitek (Berlin) 30100812
# Protocol: Assay for Determining MMP-13 Inhibition
# The typical assay for MMP-13 activity is carried out in assay buffer comprised of 50 mM Tris, pH 7.5, 150 mM NaCl, 5 mM CaCl2 and 0.05% Brij-35. Different concentrations of tested compounds are prepared in assay buffer in 50 μL aliquots. 10 μL of a 50 nM stock solution of catalytic domain of MMP-13 enzyme (produced by Alantos or commercially available from Invitek (Berlin), Cat.#30100812) is added to the compound solution. The mixture of enzyme and compound in assay buffer is thoroughly mixed and incubated for 10 min at room temperature. Upon the completion of incubation, the assay is started by addition of 40 μL of a 12.5 μM stock solution of MMP-13 fluorescent substrate (Calbiochem, Cat. No. 444235). The time-dependent increase in fluorescence is measured at the 320 nm excitation and 390 nm emission by automatic plate multireader. The IC50 values are calculated from the initial reaction rates.
# activated MMP-8 enzyme = target: T2, activated MMP-8 enzyme (Homo sapiens, UniProt P22894); assay: Assay for determining MMP-8 inhibition (fluorescent substrate); settings: read-out: MMP-8 Activity (IC50 MMP-8), Group
# T2 construct: purchased Calbiochem 444229
# Protocol: Assay for Determining MMP-8 Inhibition
# The typical assay for MMP-8 activity is carried out in assay buffer comprised of 50 mM Tris, pH 7.5, 150 mM NaCl, 5 mM CaCl2 and 0.05% Brij-35. Different concentrations of tested compounds are prepared in assay buffer in 50 μL aliquots. 10 μL of a 50 nM stock solution of activated MMP-8 enzyme (Calbiochem, Cat. No. 444229) is added to the compound solution. The mixture of enzyme and compound in assay buffer is thoroughly mixed and incubated for 10 min at 37° C. Upon the completion of incubation, the assay is started by addition of 40 μL of a 10 μM stock solution of OmniMMP fluorescent substrate (Biomol, Cat. No. P-126). The time-dependent increase in fluorescence is measured at the 320 nm excitation and 390 nm emission by an automatic plate multireader at 37° C. The IC50 values are calculated from the initial reaction rates.
# [2] = target: T3, catalytic domain of MMP-3 enzyme (Homo sapiens, UniProt P08254); assay: Assay for determining MMP-3 inhibition (fluorescent substrate); settings: read-out: MMP-3 Activity (IC50 MMP-3), Group
# T3 construct: 100 nM stock solution of the catalytic domain of MMP-3 enzyme (Biomol, Cat. No. SE-1 09); purchased Biomol SE-1 09
# Protocol: Assay for Determining MMP-3 Inhibition
# The typical assay for MMP-3 activity is carried out in assay buffer comprised of 50 mM MES, pH 6.0, 10 mM CaCl2 and 0.05% Brij-35. Different concentrations of tested compounds are prepared in assay buffer in 50 μL aliquots. 10 μL of a 100 nM stock solution of the catalytic domain of MMP-3 enzyme (Biomol, Cat. No. SE-1 09) is added to the compound solution. The mixture of enzyme and compound in assay buffer is thoroughly mixed and incubated for 10 min at room temperature. Upon the completion of incubation, the assay is started by addition of 40 μL of a 12.5 μM stock solution of NFF-3 fluorescent substrate (Calbiochem, Cat. No. 480455). The time-dependent increase in fluorescence is measured at the 330 nm excitation and 390 nm emission by an automatic plate multireader. The IC50 values are calculated from the initial reaction rates.
# T3 sequence (P08254 100-272 limits assumed): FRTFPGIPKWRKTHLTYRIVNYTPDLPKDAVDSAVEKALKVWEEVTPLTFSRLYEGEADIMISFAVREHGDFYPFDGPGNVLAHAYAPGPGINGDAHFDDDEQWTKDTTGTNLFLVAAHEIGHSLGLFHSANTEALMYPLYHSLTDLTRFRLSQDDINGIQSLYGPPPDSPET
# T2 sequence (P22894 101-467): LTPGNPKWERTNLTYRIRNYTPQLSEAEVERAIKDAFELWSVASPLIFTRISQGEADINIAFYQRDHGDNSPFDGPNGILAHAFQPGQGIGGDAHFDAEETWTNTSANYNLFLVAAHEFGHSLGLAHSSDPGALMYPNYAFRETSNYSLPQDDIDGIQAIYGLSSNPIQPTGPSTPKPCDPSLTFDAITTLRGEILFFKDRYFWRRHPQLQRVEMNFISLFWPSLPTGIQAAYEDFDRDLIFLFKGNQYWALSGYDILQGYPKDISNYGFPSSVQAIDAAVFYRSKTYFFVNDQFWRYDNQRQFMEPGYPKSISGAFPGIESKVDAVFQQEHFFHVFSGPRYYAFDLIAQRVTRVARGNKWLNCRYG
IC50 [1],IC50 (activated MMP-8 enzyme),IC50 [2],SMILES
100 to 20000 nM,,,O=C1COc2ccc(CNC(=O)c3nc(-c4ccccc4)cc(=O)[nH]3)cc2N1 [1/1]
< 100 nM,,,Cc1nc(C(=O)NCc2ccc3c(c2)NC(=O)CO3)[nH]c(=O)c1C [1/2]
< 100 nM,< 250 nM,< 250 nM,O=C1COc2ccc(CNC(=O)c3nc4ccccc4c(=O)[nH]3)cc2N1 [1/4]
100 to 20000 nM,,,CC(NC(=O)c1nc2ccccc2c(=O)[nH]1)c1ccc2c(c1)NC(=O)CO2 (stereo not drawn) [1/5]
< 100 nM,250 to 20000 nM,,CC1Oc2ccc(CNC(=O)c3nc4ccccc4c(=O)[nH]3)cc2NC1=O (stereo not drawn) [1/6]
< 100 nM,250 to 20000 nM,,Cn1c(=O)oc2ccc(CNC(=O)c3nc4ccccc4c(=O)[nH]3)cc21 [1/7]
100 to 20000 nM,250 to 20000 nM,,CN1C(=O)COc2ccc(CNC(=O)c3nc4ccccc4c(=O)[nH]3)cc21 [1/8]
< 100 nM,< 250 nM,< 250 nM,Cc1csc2nc(C(=O)NCc3ccc4c(c3)NC(=O)CO4)[nH]c(=O)c12 [1/9]
< 100 nM,,,O=C1COc2c(F)cc(CNC(=O)c3nc4ccccc4c(=O)[nH]3)cc2N1 [1/10]
< 100 nM,,,O=C1COc2c(F)cc(CNC(=O)c3nc4ccc(F)cc4c(=O)[nH]3)cc2N1 [1/11]
< 100 nM,< 250 nM,,Cc1sc2nc(C(=O)NCc3cc(F)c4c(c3)NC(=O)CO4)[nH]c(=O)c2c1C [1/12]
100 to 20000 nM,,,O=C1COc2ncc(CNC(=O)c3nc4ccccc4c(=O)[nH]3)cc2N1 [1/13]
< 100 nM,250 to 20000 nM,,Cc1sc2nc(C(=O)NCc3cnc4c(c3)NC(=O)CO4)[nH]c(=O)c2c1C [1/15]
< 100 nM,250 to 20000 nM,,O=C(NCc1ccc2c(c1)NC(=S)CO2)c1nc2ccccc2c(=O)[nH]1 [1/16]
< 100 nM,< 250 nM,,Cc1sc2nc(C(=O)NCc3ccc4c(c3)NC(=S)CO4)[nH]c(=O)c2c1C [1/17]
< 100 nM,,,O=C(NCc1ccc2c(c1)-n1cnnc1CO2)c1nc2ccccc2c(=O)[nH]1 [1/18]
< 100 nM,,,Cc1sc2nc(C(=O)NCc3ccc4c(c3)-n3cnnc3CO4)[nH]c(=O)c2c1C [1/19]
100 to 20000 nM,,,O=C1COc2ccc(CNC(=O)c3nc4ccc(F)cc4c(=O)[nH]3)c(F)c2N1 [1/23]
100 to 20000 nM,,,Cc1sc2nc(C(=O)NCc3ccc4c(c3F)NC(=O)CO4)[nH]c(=O)c2c1C [1/24]
< 100 nM,,,O=C1COc2cc(F)c(CNC(=O)c3nc4ccccc4c(=O)[nH]3)cc2N1 [1/25]
< 100 nM,250 to 20000 nM,,Cc1sc2nc(C(=O)NCc3cc4c(cc3F)OCC(=O)N4)[nH]c(=O)c2c1C [1/26]
100 to 20000 nM,,,O=C1COc2c(F)c(F)cc(CNC(=O)c3nc4ccccc4c(=O)[nH]3)c2N1 [1/27]
< 100 nM,,250 to 20000 nM,CC1N=C(C(=O)NCc2ccc3c(c2)NC(=O)CO3)NC(=O)C1c1ccccc1 (stereo not drawn) [1/29]
100 to 20000 nM,,,O=C(NCc1ccc2c(c1)-n1c(noc1=O)CO2)c1nc2ccccc2c(=O)[nH]1 [1/30]
< 100 nM,< 250 nM,< 250 nM,O=C1COc2ccc(CNC(=O)c3nc4sc5c(c4c(=O)[nH]3)CCC3(C5)OCCO3)cc2N1 [1/32]
< 100 nM,,,O=C1COc2ccc(CNC(=O)c3ncc(-c4ccc(F)cc4)c(=O)[nH]3)cc2N1 [1/33]
100 to 20000 nM,,,Cc1ccc2nc(NC(=O)Cc3ccc4c(c3)NC(=O)CO4)[nH]c(=O)c2c1 [1/34]
100 to 20000 nM,,,O=C1COc2ccc(CNC(=O)c3nc4sc5c(c4c(=O)[nH]3)CCC3(CCN(C(=O)OCc4ccccc4)CC3)C5)cc2N1 [Example 1]
< 100 nM,< 250 nM,,O=C1COc2ccc(CNC(=O)c3nc4c(c(=O)[nH]3)C3CCC4CC3)cc2N1 [Example 3]
